{
  "source": "patent EP1080070B1",
  "about": "“ANTIANGIOGENIC DRUG TO TREAT CANCER, ARTHRITIS AND RETINOPATHY” (ABBOTT LABORATORIES, priority 1998, dated 1999)",
  "test_system": "Human Microvascular Endothelial Cells (HMVEC)",
  "assay": "Endothelial cell migration assay (modified Boyden chamber, bFGF-stimulated)",
  "format": "cell-based",
  "details": "bFGF in upper chamber, 4 hours at 37 °C, percent inhibition of migration compared to a positive control; for inhibition at 0.2 µM: Homo sapiens, HMVEC, 200 nM test compound",
  "experimental": "The endothelial cell migration assay was performed essentially as described by Polverini, P.J. et al., Methods Enzymol, 198: 440-450 (1991). Briefly, Human Microvascular Endothelial Cells (HMVEC) were starved overnight in DMEM containing 0.1% bovine serum albumin (BSA). Cells were then harvested with trypsin and resuspended in DMEM with 0.1% BSA at a concentration of 1.5 x 10^6 cells/mL. Cells were added to the bottom of a 48-well modified Boyden chamber (Nucleopore Corporation, Cabin John, MD). The chamber was assembled and inverted, and cells were allowed to attach for 2 hours at 37 °C to polycarbonate chemotaxis membranes (5 µm pore size) that had been soaked in 0.1% gelatin overnight and dried. The chamber was then reinverted and basic fibroblast growth factor (bFGF) and test substances were added to the wells of the upper chamber (to a total volume of 50 µL); the apparatus was then incubated for 4 hours at 37 °C. Membranes were recovered, fixed and stained (DiffQuick, Fisher Scientific, Pittsburgh, PA) and the number of cells that had migrated to the upper chamber per 10 high power fields were counted. Background migration to DMEM +0.1% BSA was subtracted and the data reported as the number of cells migrated per 10 high power fields (400X) or when results from multiple experiments were combined, as the percent inhibition of migration compared to a positive control.",
  "note": "Where a name gives a salt, the structure may show the parent alone.",
  "data": [
    {"molecule": "CC(=O)N[C@@H](CCCCN)C(=O)Nc1ccc(C(=O)O)c(-c2cccc(O)c2)c1", "note": "[Example 15, (S)-4-[[2-(acetylamino)-6-amino-1-oxohexyl)amino]-2-(3-hydroxyphenyl)benzoic acid]", "values": [
      {"measurement": "inhibition at 0.2 µM", "value": 64, "unit": "%"}
    ]},
    {"molecule": "CC(=O)NC(CCCCN)C(=O)Nc1ccc(C(=O)N[C@@H](CC(N)=O)C(=O)O)c(-c2ccccc2)c1", "note": "(some centres unmarked) [Example 17]", "values": [
      {"measurement": "% inhibition at 200 nM test compound", "value": ">95", "unit": "%"}
    ]},
    {"molecule": "NC(CCCCNC(=O)OCc1ccccc1)C(=O)Nc1ccc(CC(=O)N[C@@H](CC(=O)O)C(=O)O)cc1", "note": "(some centres unmarked) [Example 20]", "values": [
      {"measurement": "% inhibition at 200 nM test compound", "value": 34, "unit": "%"}
    ]},
    {"molecule": "CC(=O)N[C@@H](CCCCN)C(=O)Nc1ccc(C(=O)N[C@@H](CC(=O)O)C(N)=O)c(-c2ccc(O)cc2)c1", "note": "[Example 28, (3S)-3-(((5-(((2S)-2-(acetylamino)-6-aminohexanoyl)amino)-4'-hydroxy(1,1'-biphenyl)-2-yl)carbonyl)amino)-4-amino-4-oxobutanoic acid]", "values": [
      {"measurement": "inhibition at 0.2 µM", "value": 59, "unit": "%"}
    ]},
    {"molecule": "COC(=O)c1ccc(NC(=O)[C@H](CCCCN)NC(=O)OC(C)(C)C)cc1-c1ccc(O)cc1", "note": "[Example 27, methyl 5-(((2S)-6-amino-2-((tert-butoxycarbonyl)amino)hexanoyl)amino)-4'-hydroxy(1,1'-biphenyl)-2-carboxylate]", "values": [
      {"measurement": "inhibition at 0.2 µM", "value": 28, "unit": "%"}
    ]},
    {"molecule": "COC(=O)c1ccc(NC(=O)[C@H](CCCCN)NC(C)=O)cc1-c1cccc(O)c1", "note": "[Example 14, (S)-methyl 4-[[2-(acetylamino)-6-amino-1-oxohexyl]amino]-2-(3-hydroxyphenyl)benzoate]", "values": [
      {"measurement": "inhibition at 0.2 µM", "value": 60, "unit": "%"}
    ]},
    {"molecule": "CCOC(=O)Cc1ccc(NC(=O)[C@H](CCCCN)NC(=O)OC(C)(C)C)cc1", "note": "[Example 25, (S)-ethyl 4-[[6-amino-2-[[(1,1-dimethylethoxy)carbonyl]amino]-1-oxohexyl]amino]benzeneacetate monohydrochloride]", "values": [
      {"measurement": "inhibition at 0.2 µM", "value": 38, "unit": "%"}
    ]},
    {"molecule": "CC(=O)NC(CCCCN)C(=O)Nc1ccc(C(=O)N[C@@H](CC(N)=O)C(=O)O)cc1", "note": "(stereo partly drawn) [Example 18, (S)-N-[4-[[2-(acelylainino)-6-amino-1-oxohexyl]amino]benzoyl]-L-α-asparagine]", "values": [
      {"measurement": "% inhibition at 200 nM test compound", "value": 90, "unit": "%"}
    ]},
    {"molecule": "CC(C)(C)OC(=O)C[C@H](NC(=O)Cc1ccc(N)cc1)C(=O)OC(C)(C)C", "note": "[Example 19, N-[(4-aminophenyl)acetyl]-L-aspartic acid bis(1,1-dimethylethyl) ester]", "values": [
      {"measurement": "inhibition at 0.2 µM", "value": 32, "unit": "%"}
    ]},
    {"molecule": "COC(=O)c1ccc(NC(=O)[C@@H](CCCCN)NC(=O)OC(C)(C)C)cc1-c1cccc(O)c1", "note": "[Example 9, (R)-methyl 4-[[6-amino-2-[[(1,1-dimethylethoxy)carbonyl]amino]-1-oxohexyl]amino]-2-(3-hydroxyphenyl)benzoate]", "values": [
      {"measurement": "inhibition at 0.2 µM", "value": "> 95", "unit": "%"}
    ]},
    {"molecule": "COC(=O)c1ccc(NC(=O)[C@@H](CCCCN)NC(=O)OC(C)(C)C)cc1-c1ccccc1O", "note": "[Example 10, (R)-methyl 4-[[6-amino-2-[[(1,1-dimethylethoxy)carbonyl]amino]-1-oxohexyl]amino]-2-(2-hydroxypheal)benzoate]", "values": [
      {"measurement": "% inhibition at 200 nM test compound", "value": 80, "unit": "%"}
    ]},
    {"molecule": "CC(=O)NC(CCCCN)C(=O)Nc1ccc(C(=O)N[C@@H](CC(=O)O)C(N)=O)c(-c2cccc(O)c2)c1", "note": "(stereo partly drawn) [Example 16, (S)-N-[4-[[2-(acetylamino)-6-amino-1-oxohexyl]amino]-2-(3-hydroxyphenyl)benzoyl]-L-α-asparagine]", "values": [
      {"measurement": "inhibition at 0.2 µM", "value": 86, "unit": "%"}
    ]},
    {"molecule": "CC(C)(C)OC(=O)N[C@@H](CCCCN)C(=O)Nc1ccc(C(=O)O)c(-c2cccc(O)c2)c1", "note": "[Example 31, 5-(((2S)-6-amino-2-((tert-butoxycarbonyl)amino)hexanoyl)amino)-3'-hydroxy(1,1'-biphenyl)-2-carboxylic acid]", "values": [
      {"measurement": "inhibition at 0.2 µM", "value": "> 95", "unit": "%"}
    ]},
    {"molecule": "COC(=O)c1ccc(NC(=O)[C@H](CCCCNC(=O)OCc2ccccc2)NC(C)=O)cc1-c1cccc(OCc2ccccc2)c1", "note": "[Example 12, (S)-methyl 4-[[2-(acetylamino)-6-[[(phenylmethoxy)carbonyl]amino]-1-oxohexyl]amino]2-[(3-(phenylmethoxy)phenyl benzoate]", "values": [
      {"measurement": "% inhibition at 200 nM test compound", "value": 29, "unit": "%"}
    ]}
  ]
}
